This passage reports TGI results from PubChem BioAssay (NCI).

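Assay format: 96-well plates, 48-hour exposure. TGI: total growth inhibition.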

Common to all, as to test: DTP human tumour cell line panel, 48 h
The test system of assay [1] is CCRF-CEM leukemia.
The test system of assay [2] is EKVX NSCLC.
The test system of assay [3] is HCC-2998 colon.
Assay [4] concerns HT29 colon.
For assay [5], the system named is KM12 colon.
Assay [6] concerns MCF7 breast.
For assay [7], the system named is MDA-MB-231 breast.
Assay [8] relates to NCI-H522 lung.
Assay [9] deals with OVCAR-8 ovarian.
In assay [10] the test system is SF-539 CNS.
The subject of assay [11] is SK-MEL-28 melanoma.
Assay [12] concerns SK-MEL-5 melanoma.
In assay [13] the test system is SK-OV-3 ovarian.
Assay [14] concerns SNB-19 CNS.
Assay [15] relates to SW-620 colon.
The subject of assay [16] is T-47D breast.
The test system of assay [17] is U251 CNS.
Assay [18] concerns UACC-257 melanoma.
The test system of assay [19] is UACC-62 melanoma.
Assay [20] concerns MDA-N.

In the case of `O=C(CCC(NC(=O)OCc1ccccc1)C(=O)OCc1ccccc1)Nc1ccc(OCc2ccccc2)cc1` (stereo unspecified), the concentration for total growth inhibition (TGI) (in general, the concentration at which net growth stops) in [1] is greater than 31.6 µM; in assay [2] it was greater than 31.6 µM; in assay [3], greater than 31.6 µM; in assay [4] it was greater than 31.6 µM; in assay [5], greater than 31.6 µM; in [6], 19.9 µM. Moreover, the TGI is 25.6 µM in assay [7]; greater than 100 µM in assay [8]; 20.2 µM in assay [9]; greater than 31.6 µM in assay [10]; greater than 31.6 µM in assay [11]; greater than 10 µM in assay [12]. Further, the TGI in [13] is greater than 31.6 µM; in assay [14] it was greater than 31.6 µM; in [15], greater than 31.6 µM; in assay [16], greater than 31.6 µM; in assay [17], 28 µM; in [18], greater than 31.6 µM. The compound further had a TGI in [19] greater than 31.6 µM.
`COc1ccc(/C=C2\NC(=S)N(CN3CCCCC3)C2=O)cc1`: the TGI is greater than 100 µM in assay [1]; greater than 100 µM in [2]; 41 µM in assay [4]; greater than 100 µM in [5]; 61.1 µM in assay [6]; greater than 100 µM in assay [7]. The concentration for total growth inhibition (TGI) is greater than 100 µM in [20]; greater than 100 µM in assay [8]; 50 µM in [9]; greater than 100 µM in [11]; greater than 100 µM in assay [12]; greater than 100 µM in [13]. Besides, the TGI in assay [14], in [15], in assay [17] and in assay [19] was greater than 100 µM in each case.
On to `NC(=O)N=C(N(Cc1ccccc1)Cc1ccccc1)N(Cc1ccccc1)Cc1ccccc1`, for which the TGI in assay [1], in assay [2], in assay [3], in assay [4], in assay [5] and in assay [6] was greater than 100 µM in each case. In addition, the TGI in assay [7], in [8], in assay [9], in assay [10], in assay [11] and in assay [12] was greater than 100 µM throughout. Also, the TGI was greater than 100 µM in assay [13]; greater than 100 µM in [14]; greater than 100 µM in [15]; greater than 100 µM in [16]; greater than 63.7 µM in [17]; greater than 100 µM in [18]. Also, the TGI in assay [19] was greater than 100 µM.
Take `CCOP(=O)(OCC)C1CC(O)C(=O)N1` (stereo unspecified): the TGI in assay [1], in assay [2], in [4], in assay [5], in assay [6] and in assay [7] was greater than 100 µM in each case. In addition, the TGI in assay [20], in assay [9], in assay [11], in [12], in assay [13] and in assay [14] was greater than 100 µM each time. For the same compound, the TGI in assay [15], in assay [17], in assay [18] and in assay [19] was greater than 100 µM in each case.
In the case of `O=[N+]([O-])c1ccc(-c2csc3nc(-c4ccccc4)nn23)cc1`, the TGI in assay [1], in [2], in assay [3], in assay [4], in [5] and in assay [6] was greater than 100 µM each time. Further, the TGI in assay [7], in [20], in assay [8], in assay [9], in assay [11] and in [12] was greater than 100 µM in each case. In addition, the TGI in [13], in assay [14], in assay [15], in assay [17], in assay [18] and in assay [19] was greater than 100 µM in each case.
Consider `COC(=O)C(CC12CC3CC(CC(C3)C1)C2)NC(=O)C(N)CC(=O)O` (stereo unspecified), for which the TGI in assay [1], in assay [2], in assay [3], in assay [4], in [5] and in assay [20] was greater than 100 µM throughout. Also, the TGI in assay [8], in assay [9], in assay [11], in assay [12], in assay [13] and in assay [14] was greater than 100 µM each time. The concentration for total growth inhibition (TGI) in assay [15], in assay [16], in assay [17], in [18] and in assay [19] was greater than 100 µM each time.
`COCCN(C(C)=O)C1CCC2(SCCS2)c2[nH]c3ccccc3c21` (stereo unspecified): the TGI in [1], in [2], in assay [3], in [4], in assay [5] and in assay [6] was greater than 100 µM each time. The TGI in assay [7], in assay [20], in assay [8], in assay [9], in [10] and in [11] was greater than 100 µM in each case. Moreover, the TGI in assay [12], in [14], in [15], in assay [17] and in [18] was greater than 100 µM each time.
As to `O=C1c2ccccc2S(=O)(=O)c2c1cccc2[N+](=O)[O-]`, the TGI was 4.19 µM in assay [1]; greater than 8.6 µM in assay [2]; greater than 10 µM in assay [3]; greater than 7.01 µM in assay [4]; 5.08 µM in assay [5]; 3.31 µM in assay [6]. Moreover, the concentration for total growth inhibition (TGI) was 5.36 µM in assay [7]; 3.09 µM in [8]; 5.46 µM in assay [9]; 4.34 µM in assay [10]; 5.25 µM in assay [11]; 2.46 µM in assay [12]. For the same compound, the concentration for total growth inhibition (TGI) in assay [13] was greater than 10 µM; in [14] it was greater than 10 µM; in [15] it was 3.47 µM; in assay [16] it was 5.9 µM; in [17] it was greater than 8.28 µM; in assay [18] it was 4.76 µM. This compound displayed a concentration for total growth inhibition (TGI) in assay [19] of 3.48 µM.
In the case of `Nc1ncnc2ccc(Sc3ccc4ncnc(N)c4c3)cc12`, the TGI in assay [1], in assay [2], in [4], in assay [5], in assay [6] and in assay [7] was greater than 100 µM in each case. Further, the TGI in [9], in assay [10], in [11], in [12], in [13] and in assay [14] was greater than 100 µM each time. In addition, the TGI in assay [15], in assay [16], in assay [17], in [18] and in assay [19] was greater than 100 µM each time.
`CCCCCCCCCCCC(=O)Oc1c(Cl)cc(Cl)c(OC(=O)C(=O)Oc2c(Cl)cc(Cl)c(OC(=O)CCCCCCCCCCC)c2Cl)c1Cl`: the TGI in [1], in assay [2], in assay [4], in assay [5], in [6] and in assay [20] was greater than 100 µM each time. Moreover, the total growth inhibition concentration (TGI) in assay [8], in assay [9], in assay [11], in assay [12], in [13] and in assay [14] was greater than 100 µM in each case. Moreover, the TGI in assay [15], in assay [16], in assay [17], in assay [18] and in assay [19] was greater than 100 µM in each case.
For the compound `O=C(c1cccc2ccccc12)C1(Br)S(=O)(=O)OCCOS1(=O)=O`, the total growth inhibition concentration (TGI) in assay [2], in assay [3], in assay [4], in assay [5], in assay [6] and in assay [7] was greater than 100 µM each time. Also, the TGI in assay [20], in assay [9], in [11], in assay [12], in assay [14] and in assay [17] was greater than 100 µM each time. In assay [18], this compound registered a TGI greater than 100 µM.
For `C[C@H](OCc1ccccc1)C(=O)N1CCS(=O)(=O)N2CCC[C@H]2C1=O`, the TGI in assay [1], in assay [2], in assay [3], in [4], in [5] and in assay [8] was greater than 100 µM in each case. Moreover, the TGI in [9], in assay [10], in assay [11], in [12], in assay [13] and in [14] was greater than 100 µM throughout. Also, the TGI in [15], in [17], in assay [18] and in assay [19] was greater than 100 µM throughout.
In the case of `COC(O)C(=O)c1c2c(cc3c1CC1(Cc4cc5c(cc4C1)CCC5)C3)CCC2` (stereo unspecified), the TGI in assay [1] was determined as 20.5 µM; in [2], 41.1 µM; in assay [3] it was 42.8 µM; in assay [4], 22.7 µM; in [6], 33.9 µM; in [7] it was 29.2 µM. The TGI was determined as 36.1 µM in assay [8]; 33.6 µM in assay [9]; 31.5 µM in assay [10]; 35.7 µM in assay [11]; 31.3 µM in assay [12]; 31.8 µM in assay [13]. The TGI in assay [14] came to 36.1 µM; in assay [15] it was 35.5 µM; in [16] it was 50.4 µM; in [17], 25.7 µM; in assay [18], 33.1 µM.
